The test system of data set [1] is panel of human uveal melanoma cell lines. Put plainly: Cell death by Annexin V/DAPI staining with qVD. The format is cell-based. The following applies: all cell lines. The protocol:
(§1) Cells were seeded at a density of 100 000 cells/well, in 6-well plate and treated with ABT-263 for indicated time. Cells were harvested using accutase enzyme, washed twice with ice-cold phosphate-buffered saline, resuspended in a buffer (Hepes 250 mM, NaCl 150 mM, KCl 5 mM, MgCl2 2 mM, CaCl2) 2 mM) with DAPI (1 μg/ml) and Annexin V-Alexa Fluor 647 conjugate (1/100) and incubated for 15 minutes at room temperature (25° C.) in the dark. Samples were immediately analyzed by a flow cytometer (MACS QUANT) using a laser at 405 nm excitation with a bandpass filter at 425 nm and 475 nm for DAPI detection and a laser at 635 nm excitation with a bandpass filter at 650 nm and 665 nm for Alexa Fluor 647 dye. Annexin and DAPI mono- or double positive cells were counted as dead cells.

Data set [2] has as its system PARP, caspase 9 and caspase 3 in primary and metastatic uveal melanoma cells. Put plainly: Western blot of PARP and caspases. The format is cell-based, human. The following applies: pretreatment with pan caspase inhibitor.
Data set [3] relates to OMM1 uveal melanoma cells. Put plainly: Mitochondrial membrane potential by TMRE staining. It counts as cell-based, human. As to conditions: OMM1 cells. The protocol:
(§2) FIG. 1. ABT-263 induces apoptosis of uveal melanoma cells. Detection of the mitochondrial membrane potential using TMRE staining in Mel270 and OMM1 uveal melanoma cells exposed to ABT-263 3 μM or 5 μM for 48 h in the absence or presence of QVD-OPh 20 μM.

For data set [4], the system named is Mel270 uveal melanoma cells. Put plainly: Mitochondrial membrane potential by TMRE staining. It counts as cell-based, human. As to conditions: Mel270 cells. The protocol: as §2
Data set [5] relates to ER stress molecules in Mel270 cells. Put plainly: Western blot of ER stress molecules. The format is cell-based, human. The protocol: Western blot of ER stress molecules in Mel270 cells treated with ABT-263 5 μM in the absence or presence of QVD-OPh 20 μM. Representative western blot are shown.
(§3) Western blotting was performed as previously described 25,26. Briefly, cell lysates (30 μg) were separated using SDS-PAGE, transferred onto a PVDF membrane and subsequently exposed to the appropriate antibodies, anti-BCL2 (ms-123-PO) was from neomarker, anti-caspase 3 (#610323) was from BD, anti-BAX (#8429) was from sigma, anti-PARP (#9542), anti-BCL-XL (#2762), anti-caspase 9 (#9502) and anti-PUMA (#4976) were from Cell Signaling Technology Inc, anti-MCL1 (#sc-819), anti-NOXA (#56169), and anti-HSP90 (#sc-13119) were from Santa Cruz biotechnology. The proteins were visualized using the ECL system (Amersham).
On the technique in general: In western blotting, separated proteins are transferred to a membrane and probed.

The test system of another data set is 92.1 cells. Nature of the data set: Cell death / apoptosis. It counts as cell-based, human. As to conditions: data not shown. The protocol:
as §1

The subject of the next data set is Mel270 cells. Put plainly: Cell death / alive cells by Annexin V/DAPI FACS. The format is cell-based, human. The following applies: GSK2606414 5 μM, 48 h. The protocol:
FIG. 5: PERK dampens ABT-263 killing activity. (A) Q-PCR analysis of PERK level in Mel270 uveal melanoma cells treated with control (siCtl) or PERK (siPERK) siRNA for 48 hr. (B) Mel270 cells were treated with control (siCtl) or PERK (siPERK) siRNA for 48 hrs before being exposed to ABT-263 3 μM for 48 hr. FACS analyses of Annexin V/DAPI double staining in […] indicate alive (white) or dead (early, late apoptosis and necrosis in light grey) cells. (C) Mel270 cells were treated with ABT-263 5 μM or GSK2606414 5 μM alone or in combination for 48 h.
as §1

A further data set has as its system OMM1 cells. Nature of the data set: Cell proliferation assay. It counts as cell-based, human. The protocol: (§4) Human uveal melanoma cell lines and short-term cultures derived from different patients with metastatic malignant melanoma cells were grown in DMEM supplemented with 7% FBS at 37° C. in a humidified atmosphere containing 5% CO2. Lipofectamine™ RNAiMAX and opti-MEM medium were purchased from Invitrogen (San Diego, CA, USA). ABT-263 was obtained from Euromedex and qVD from Clinisciences.

The next data set relates to primary melanoma cells. Nature of the data set: Cell proliferation assay. The format is cell-based, human. The following applies: data not shown. The protocol:
as §4

For data set [6], the system named is OMM2,5 metastatic melanoma cells. Put plainly: Cell proliferation assay. The format is cell-based, human. The protocol: as §4
In data set [7] the test system is ER stress molecules in metastatic human uveal melanoma cells. Put plainly: Western blot of ER stress molecules. The format is cell-based. As to conditions: OMM1. The protocol: as §3, with “(Amersham). The western blots shown are representative of at least 3 independent experiments.” for “(Amersham).”

For `CC(C)[C@H](NC(=O)c1ccc2ccccc2n1)C(=O)N[C@@H](CC(=O)O)C(=O)COc1c(F)cccc1F` [qVD], the “effect of qVD on ABT-263 cytotoxicity” value in data set [1] is “protective effect”. Also, the “PARP and caspase cleavage under ABT-263 after QVD pretreatment” value in data set [2] was “prevented PARP and caspase cleavage”. Further, the “effect of qVD on mitochondrial membrane depolarization after ABT-263” value is listed as “prevented mitochondrial membrane depolarization” in data set [3] and “did not prevent it” in data set [4]. In addition, the “effect of qVD on ABT-263 mediated change in ER molecules” value in data set [5] (Mel270, QVD-OPh 20 μM) is “did not impact”.
Regarding `Cn1cc(-c2ccc3c(c2)CCN3C(=O)Cc2cccc(C(F)(F)F)c2)c2c(N)ncnc21` [GSK2606414], the “sensitivity of 92.1 cells to ABT-263 with GSK2606414” value in the data set with 92.1 cells was “resensitized”. Besides, the “viable cells, alone” value in the data set with Mel270 cells is reported as “no effect”. The “CHOP and ATF4 accumulation” value in [5] (cell line not stated, data not shown) was “inhibited CHOP and ATF4 accumulation”.
On to `CC1(C)CCC(CN2CCN(c3ccc(C(=O)NS(=O)(=O)c4ccc(NCC5CCOCC5)c([N+](=O)[O-])c4)c(Oc4cnc5[nH]ccc5c4)c3)CC2)=C(c2ccc(Cl)cc2)C1` [ABT-199], for which the proliferation inhibition in the data set on OMM1 cells (OMM1 cells, data not shown) came out at 15%.
As to `CN(C)CC[C@H](CSc1ccccc1)Nc1ccc(S(=O)(=O)NC(=O)c2ccc(N3CCN(Cc4ccccc4-c4ccc(Cl)cc4)CC3)cc2)cc1[N+](=O)[O-]` [ABT-737], the “proliferation, response of primary melanoma cells” value with primary melanoma cells is reported as “highly resistant”. The proliferation result (with OMM1 cells (OMM1 metastatic melanoma cells); in data set [6]) was “strongly reduced proliferation” each time.
On to tunicamycin, for which the CHOP stimulation result in data set [7] is on record as “able to stimulate CHOP”.
